What is called IC50 is the point on the concentration scale where inhibition reaches its midpoint.

What all share (type): biochemical
Assay [1] deals with recombinant JAK2 (amino acids 831-1132) (Homo sapiens (Human), UniProt O60674). Briefly: Enzyme inhibition studies, JAK2 (peptide phosphorylation, Caliper LC3000). The following applies: ATP concentration of the tabulated values not stated (assayed at ATP Km 15 μM and at 5 mM). How it is done:
(§1) Enzyme inhibition studies were performed using recombinant JAK1 (amino acids 866-1154, Life Technologies, #PV4774, Carlsbad, Calif.), JAK2 (amino acids 831-1132), or JAK3 (amino acids 781-1124) under buffer conditions of 50 mM HEPES pH 7.3, 1 mM DTT, 0.01% Tween® 20, 50 μg/mL BSA, and 10 mM MgCl2. JAK enzyme was expressed as an N-terminal GST fusion in insect cells and purified by glutathione-affinity and size-exclusion chromatographies. […] Phosphorylated and unphosphorylated peptides were separated and quantified by a Caliper LC3000 system (Caliper Life Sciences, MA) for calculating percent inhibition.

The target of assay [2] is recombinant JAK3 (amino acids 781-1124) (Homo sapiens (Human), UniProt P52333). Description: Enzyme inhibition studies, JAK3 (peptide phosphorylation, Caliper LC3000). The following applies: ATP concentration of the tabulated values not stated (assayed at ATP Km 3 μM and at 5 mM). How it is done:
as §1

In assay [3] the target is recombinant JAK1 (amino acids 866-1154) (Homo sapiens (Human), UniProt P23458). Description: Enzyme inhibition studies, JAK1 (peptide phosphorylation, Caliper LC3000). The following applies: ATP concentration not given (assayed at ATP Km 55 μM and at 5 mM). How it is done: as §1
Sequence of recombinant JAK1 (amino acids 866-1154) (P23458 866-1154): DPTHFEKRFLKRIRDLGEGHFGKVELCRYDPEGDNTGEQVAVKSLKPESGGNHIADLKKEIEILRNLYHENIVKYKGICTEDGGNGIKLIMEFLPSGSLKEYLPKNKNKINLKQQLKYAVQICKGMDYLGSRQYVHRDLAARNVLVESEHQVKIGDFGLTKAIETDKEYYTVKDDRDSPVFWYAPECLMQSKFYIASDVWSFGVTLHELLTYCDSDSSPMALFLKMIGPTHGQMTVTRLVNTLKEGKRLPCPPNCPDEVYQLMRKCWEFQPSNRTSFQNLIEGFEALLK

Where only a bound is given, the exact number is not on record here.

Sequence of recombinant JAK2 (amino acids 831-1132) (O60674 831-1132): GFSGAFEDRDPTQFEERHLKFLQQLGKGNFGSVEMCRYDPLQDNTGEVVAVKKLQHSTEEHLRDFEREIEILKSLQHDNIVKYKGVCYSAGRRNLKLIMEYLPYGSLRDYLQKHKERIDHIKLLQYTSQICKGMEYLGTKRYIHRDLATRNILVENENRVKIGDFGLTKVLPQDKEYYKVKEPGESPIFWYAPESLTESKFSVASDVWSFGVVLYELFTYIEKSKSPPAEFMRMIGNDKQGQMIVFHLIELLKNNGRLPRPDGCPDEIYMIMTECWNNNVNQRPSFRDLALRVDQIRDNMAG
Sequence of recombinant JAK3 (amino acids 781-1124) (P52333 781-1124): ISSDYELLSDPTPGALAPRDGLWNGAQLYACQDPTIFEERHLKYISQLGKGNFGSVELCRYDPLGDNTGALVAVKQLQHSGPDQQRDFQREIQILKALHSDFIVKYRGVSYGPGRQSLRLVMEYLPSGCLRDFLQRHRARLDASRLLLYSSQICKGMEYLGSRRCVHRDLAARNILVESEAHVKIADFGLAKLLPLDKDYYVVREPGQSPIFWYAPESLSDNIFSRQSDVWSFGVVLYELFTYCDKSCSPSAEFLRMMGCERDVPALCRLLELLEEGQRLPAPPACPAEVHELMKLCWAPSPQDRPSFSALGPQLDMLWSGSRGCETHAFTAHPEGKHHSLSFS

Regarding `COCCN1CCN([C@H](C)C(=O)Nc2cccc3c(-c4nc(Nc5cn(C)nc5OC)ncc4C)c[nH]c23)CC1` [Example 17, (2R)-2-[4-(2-methoxyethyl)piperazin-1-yl]-N-(3-{2-[(3-methoxy-1-methyl-1H-pyrazol-4-yl)amino]-5-methylpyrimidin-4-yl}-1H-indol-7-yl)propanamide], the figures for the IC50 in assay [1], in assay [2] and in assay [3] were 18.1 µM, more than 30 µM and 0.107 µM, respectively.

Turning to `COc1nn(C)cc1Nc1ncc(C)c(-c2c[nH]c3c(NC(=O)[C@@H](C)N4CCN(C)[C@H](C)C4)cccc23)n1` [Example 18, (2R)-2-[(3R)-3,4-dimethylpiperazin-1-yl]-N-(3-{2-[(3-methoxy-1-methyl-1H-pyrazol-4-yl)amino]-5-methylpyrimidin-4-yl}-1H-indol-7-yl)propanamide], the half-maximal inhibitory concentration (IC50) in assay [1] is 17.3 µM; in assay [2] it was more than 30 µM; in assay [3], 0.057 µM.

In the case of `COc1nn(C)cc1Nc1ncc(C)c(-c2c[nH]c3c(NC(=O)[C@@H](C)N4CCN(C)C[C@@H]4C)cccc23)n1` [Example 19, (2R)-2-[(2S)-2,4-dimethylpiperazin-1-yl]-N-(3-{2-[(3-methoxy-1-methyl-1H-pyrazol-4-yl)amino]-5-methylpyrimidin-4-yl}-1H-indol-7-yl)propanamide], the concentration for half-maximal inhibition (IC50) is more than 30 µM in assay [1], more than 30 µM in assay [2] and 0.296 µM in assay [3].

In the case of `CCOc1nn(C)cc1Nc1ncc(C)c(-c2c[nH]c3c(NC(=O)[C@@H](C)N4CCN(CC)CC4)cccc23)n1` [Example 20, (2R)-N-(3-{2-[(3-ethoxy-1-methyl-1H-pyrazol-4-yl)amino]-5-methylpyrimidin-4-yl}-1H-indol-7-yl)-2-(4-ethylpiperazin-1-yl)propanamide], the IC50 is 17.2 µM in assay [1], more than 30 µM in assay [2] and 0.051 µM in assay [3].

In the case of `CCOc1nn(C)cc1Nc1ncc(C)c(-c2c[nH]c3c(NC(=O)[C@@H](C)N4CCN(CCOC)CC4)cccc23)n1` [Example 21, (2R)-N-(3-{2-[(3-ethoxy-1-methyl-1H-pyrazol-4-yl)amino]-5-methylpyrimidin-4-yl}-1H-indol-7-yl)-2-[4-(2-methoxyethyl)piperazin-1-yl]propanamide], the results for the IC50 in assay [1], in assay [2] and in assay [3] were more than 30 µM, more than 30 µM and 0.184 µM, respectively.

Turning to `CCOc1nn(C)cc1Nc1ncc(C)c(-c2c[nH]c3c(NC(=O)[C@@H](C)N4CCN(C)C[C@@H]4C)cccc23)n1` [Example 22, (2R)-2-[(2S)-2,4-dimethylpiperazin-1-yl]-N-(3-{2-[(3-ethoxy-1-methyl-1H-pyrazol-4-yl)amino]-5-methylpyrimidin-4-yl}-1H-indol-7-yl)propanamide], the half-maximal inhibitory concentration (IC50) is more than 30 µM in assay [1], more than 30 µM in assay [2] and 0.49 µM in assay [3].

Consider `CCOc1nn(C)cc1Nc1ncc(C)c(-c2c[nH]c3c(NC(=O)[C@@H](C)N4CCN(C)C[C@H]4C)cccc23)n1` [Example 23, (2R)-2-[(2R)-2,4-dimethylpiperazin-1-yl]-N-(3-{2-[(3-ethoxy-1-methyl-1H-pyrazol-4-yl)amino]-5-methylpyrimidin-4-yl}-1H-indol-7-yl)propanamide], for which the results for the concentration for half-maximal inhibition (IC50) in assay [1], in assay [2] and in assay [3] were 25.7 µM, more than 30 µM and 0.029 µM, respectively.

`CCOc1nn(C)cc1Nc1ncc(C)c(-c2c[nH]c3c(NC(=O)[C@@H](C)N4CCN(C)[C@H](C)C4)cccc23)n1` [Example 24, (2R)-2-[(3R)-3,4-dimethylpiperazin-1-yl]-N-(3-{2-[(3-ethoxy-1-methyl-1H-pyrazol-4-yl)amino]-5-methylpyrimidin-4-yl}-1H-indol-7-yl)propanamide]: the half-maximal inhibitory concentration (IC50) in assay [1] is more than 30 µM; in assay [2], more than 30 µM; in assay [3], 0.113 µM.

In the case of `COc1nn(C)cc1Nc1ncc(F)c(-c2c[nH]c3c(NC(=O)[C@@H](C)N4CCN(C)CC4)cccc23)n1` [Example 25, (2R)-N-(3-{5-Fluoro-2-[(3-methoxy-1-methyl-1H-pyrazol-4-yl)amino]pyrimidin-4-yl}-1H-indol-7-yl)-2-(4-methylpiperazin-1-yl)propanamide], the values for the half-inhibitory concentration (IC50) in assay [1], in assay [2] and in assay [3] were 6.62 µM, more than 30 µM and 0.019 µM, respectively.

Regarding `COc1nn(C)cc1Nc1nccc(-c2c[nH]c3c(NC(=O)[C@@H](C)N4CCN(C)[C@@H](C)C4)cccc23)n1` [Example 26, (2R)-2-[(3S)-3,4-dimethylpiperazin-1-yl]-N-(3-{2-[(3-methoxy-1-methyl-1H-pyrazol-4-yl)amino]pyrimidin-4-yl}-1H-indol-7-yl)propanamide], the values for the half-inhibitory concentration (IC50) in assay [1], in assay [2] and in assay [3] were 16.7 µM, more than 30 µM and 0.069 µM, respectively.

As to `COCCN1CCN([C@H](C)C(=O)Nc2cccc3c(-c4ccnc(Nc5cn(C)nc5OC)n4)c[nH]c23)CC1` [Example 27, (2R)-2-[4-(2-methoxyethyl)piperazin-1-yl]-N-(3-{2-[(3-methoxy-1-methyl-1H-pyrazol-4-yl)amino]pyrimidin-4-yl}-1H-indol-7-yl)propanamide], the IC50 is more than 30 µM in assay [1], more than 30 µM in assay [2] and 0.575 µM in assay [3].

With `CCN1CCN([C@H](C)C(=O)Nc2cccc3c(-c4ccnc(Nc5cn(C)nc5OC)n4)c[nH]c23)CC1` [Example 28], the concentration for half-maximal inhibition (IC50) in assay [1] is 11.8 µM; in assay [2], more than 30 µM; in assay [3] it was 0.106 µM.

As to `COc1nn(C)cc1Nc1nccc(-c2c[nH]c3c(NC(=O)[C@@H](C)N4CCN(C)[C@H](C)C4)cccc23)n1` [Example 30, (2R)-2-[(3R)-3,4-dimethylpiperazin-1-yl]-N-(3-{2-[(3-methoxy-1-methyl-1H-pyrazol-4-yl)amino]pyrimidin-4-yl}-1H-indol-7-yl)propanamide], the half-inhibitory concentration (IC50) in assay [1] was more than 30 µM; in assay [2], more than 30 µM; in assay [3] it was 0.304 µM.

For `CCOc1nn(C)cc1Nc1ncc(C)c(-c2c[nH]c3c(NC(=O)[C@@H](C)N4CCN(C)[C@@H](C)C4)cccc23)n1` [Example 31a, (2R)-2-[(3S)-3,4-dimethylpiperazin-1-yl]-N-(3-{2-[(3-ethoxy-1-methyl-1H-pyrazol-4-yl)amino]-5-methylpyrimidin-4-yl}-1H-indol-7-yl)propanamide], the IC50 in assay [1] is 19.8 µM; in assay [2], more than 30 µM; in assay [3], 0.015 µM.

Take `CCOc1nn(C)cc1Nc1ncc(C)c(-c2c[nH]c3c(NC(=O)[C@H](C)N4CCN(C)[C@@H](C)C4)cccc23)n1` [Example 31b, (2S)-2-[(3S)-3,4-dimethylpiperazin-1-yl]-N-(3-{2-[(3-ethoxy-1-methyl-1H-pyrazol-4-yl)amino]-5-methylpyrimidin-4-yl}-1H-indol-7-yl)propanamide]: the results for the IC50 in assay [1], in assay [2] and in assay [3] were more than 30 µM, more than 30 µM and 0.454 µM, respectively.

As for `COc1nn(C)cc1Nc1ncc(C)c(-c2c[nH]c3c(NC(=O)[C@H](C)N4CCN(C)CC4)cccc23)n1` [Example 33, (2S)-N-(3-{2-[(3-methoxy-1-methyl-1H-pyrazol-4-yl)amino]-5-methylpyrimidin-4-yl}-1H-indol-7-yl)-2-(4-methylpiperazin-1-yl)propanamide], the IC50 was more than 30 µM in assay [1], more than 30 µM in assay [2] and 0.272 µM in assay [3].

The values above are taken from patent US9714236B2, “Compounds and methods for inhibiting JAK” (AstraZeneca AB, priority 2015, dated 2017).
